The target of assay [1] is LBD of chemoreceptor R3 (WP_006464688.1) (Herbaspirillum frisingense, UniProt A0ABU1PC34). As to the kind of experiment: ITC binding to R3-LBD. To be noted: 20 °C, Nb = no binding. How it is done:
(§1) Plasmids for the overexpression of the different proteins were transformed into E. coli BL21(DE3). The resulting strains were grown under continuous stirring (200 rpm) at 30 °C in 2-L Erlenmeyer flasks containing 500 mL of LB medium supplemented with 50 μg/mL kanamycin. At an OD660 of 0.5, protein expression was induced by the addition of 0.1 mM isopropyl β-D-1-thiogalactopyranoside. Growth was continued at 16 °C overnight prior to cell harvesting by centrifugation at 10,000 × g for 20 min. Cell pellets were resuspended in buffer A (Additional file 2: Table S4) and subsequently broken by French press treatment at 62.5 lb/in^2. After centrifugation at 20,000 × g for 30 min, the supernatants were loaded onto 5-mL HisTrap HP columns (Amersham Biosciences) equilibrated with buffer A, and the proteins were eluted with a linear gradient of buffer B (Additional file 2: Table S4). All proteins contain a hexa-histidine tag at the N-terminal extension (Additional file 2: Table S3) and were purified at 4 °C. The purified proteins were dialyzed overnight into the corresponding analysis buffers (Additional file 2: Table S4) for immediate analysis.
(§2) All experiments were conducted on a VP microcalorimeter (Microcal, MA) at 15 °C for PacP-LBD and at 20 °C for the remaining proteins. Proteins were dialyzed into the analysis buffers specified in Additional file 2: Table S4, placed into the sample cell and titrated with aliquots of ligand solutions (1 to 10 mM) freshly prepared in dialysis buffer. The mean enthalpies measured from the injection of the ligands into the analysis buffer were subtracted from the raw titration data prior to data analysis with the MicroCal version of ORIGIN. The data were fitted with the “One binding site model” of ORIGIN.

The target of assay [2] is LBD of chemoreceptor R5 (WP_028444678.1). As to the kind of experiment: ITC binding to R5-LBD. Set-up: species or system Chitinimonas koreensis. To be noted: 20 °C, Nb = no binding. How it is done: as §1, §2
Assay [3] addresses LBD of chemoreceptor R6 (WP_174062248.1). As to the kind of experiment: ITC binding to R6-LBD. Set-up: species or system Agrobacterium larrymoorei. The note with it: 20 °C, Nb = no binding. How it is done:
as §1, §2

The target in assay [4] is LBD of chemoreceptor R9 (WP_189529961.1) (Paludibacterium paludis, UniProt A0A918NWY2). As to the kind of experiment: ITC binding to R9-LBD. The note with it: 20 °C, Nb = no binding. How it is done:
as §1, §2

Assay [5] addresses LBD of chemoreceptor R10 (WP_028866120.1). As to the kind of experiment: ITC binding to R10-LBD. Set-up: species or system Psychromonas aquimarina. To be noted: 20 °C, Nb = no binding. How it is done:
as §1, §2

The subject of assay [6] is ECA_RS12390-LBD (PacP-LBD). As to the kind of experiment: Thermal shift ligand screening of PacP-LBD. Type of assay: binding, Pectobacterium atrosepticum. The note with it: thermal shift assay, Biolog arrays PM1, PM2A, PM3B, PM4A. How it is done:
Assays were carried out on a MyIQ2 Real-Time PCR instrument (Bio-Rad, Hercules, CA, USA). Ligand solutions were prepared by dissolving the array compounds in 50 µL of Milli-Q water, which, according to the manufacturer, corresponds to a concentration of 10–20 mM. Freshly purified proteins were dialyzed into analysis buffer (Additional file 2: Table S4). Compound arrays PM1, PM2A (carbon sources), PM3B (nitrogen sources), and PM4A (phosphorus and sulfur sources) from Biolog (https://www.biolog.com/) were used. The compositions of these arrays are provided in Additional file 2: Table S1. The experiments were conducted in 96-well plates, and each assay mixture contained 20 µL of the dialyzed protein (at 80–50 µM), 2 µL of 5 × SYPRO orange (Life Technologies, Eugene, Oregon, USA), and 2.5 µL of the resuspended array compound or the equivalent amount of buffer in the ligand-free control. The samples were heated from 23 to 85 °C at a scan rate of 1 °C/min. The protein unfolding curves were monitored by detecting changes in SYPRO® Orange fluorescence. The Tm values were determined from the first derivative values of the raw fluorescence data.

The next assay concerns P. atrosepticum SCRI1043. As to the kind of experiment: Quantitative capillary chemotaxis assay, wild type. In kind it is cell-based, Pectobacterium atrosepticum. To be noted: wild type SCRI1043, 1 mM ligand, 30 min. How it is done: Overnight cultures of P. atrosepticum SCRI1043 were grown at 30 °C in minimal medium. At an OD660 of 0.4–0.45, the cultures were washed twice with chemotaxis buffer (50 mM K2HPO4/KH2PO4, 20 μM EDTA, 0.05% (v/v) glycerol, pH 7.0) and diluted to an OD660 of 0.1 in the same buffer. Subsequently, 230 μL of the resulting bacterial suspension was placed into the wells of 96-well plates. One-microliter capillary tubes (P1424, Microcaps; Drummond Scientific) were heat-sealed at one end and filled with either chemotaxis buffer (negative control) or chemotaxis buffer containing PacP ligands at a concentration of 1 mM. The capillaries were immersed in the bacterial suspensions at their open ends. After 30 min at room temperature, the capillaries were removed from the bacterial suspensions, rinsed with sterile water, and the contents were expelled into 1 mL of 40 mM K2HPO4, 15 mM KH2PO4. Serial dilutions were plated onto minimal medium supplemented with 15 mM glucose as the carbon source. The number of colony-forming units was determined after 36 h of incubation at 30 °C. In all the cases, the data were corrected with the number of cells that swam into the buffer-containing capillaries.

In assay [7] the test system is Pectobacterium atrosepticum SCRI1043. As to the kind of experiment: Growth experiment, sole phosphorus source. To be noted: PFM9 minimal medium, 5 mM ligand, 30 °C, 48 h. In kind it is cell-based. How it is done:
P. atrosepticum SCRI1043 was cultured overnight in phosphate-free M9-based medium (PFM9) supplemented with 20 mM glucose as the carbon source and 500 µM inorganic phosphate as the phosphate source. Cultures were washed and then diluted to an OD600 of 0.02 in PFM9 supplemented with different PacP ligands as the sole carbon or phosphorous source at a final concentration of 5 mM. Subsequently, 200 µL aliquots of these cultures were transferred into microwell plates, which were subsequently grown at 30 °C on a Bioscreen microbiological growth analyzer (Oy Growth Curves Ab Ltd., Helsinki, Finland) for 48 h.

The test system of the next assay is Bacillus subtilis. Set-up: method as in PMID 119030, PMID 500565. The note with it: cited from earlier work.

Structures are written as SMILES.

The values that follow come from publication PMC12395807, “Chemoreceptor family in plant-associated bacteria responds preferentially to the plant signal molecule glycerol 3-phosphate” (Genome Biology, 2025).

Sequence of LBD of chemoreceptor R3 (WP_006464688.1) (A0ABU1PC34 entry or part of it): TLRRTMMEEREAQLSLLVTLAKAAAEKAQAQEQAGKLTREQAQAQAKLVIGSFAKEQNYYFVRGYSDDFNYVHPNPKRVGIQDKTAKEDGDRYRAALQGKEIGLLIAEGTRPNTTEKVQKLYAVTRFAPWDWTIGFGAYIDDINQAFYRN
Sequence of LBD of chemoreceptor R9 (WP_189529961.1) (A0A918NWY2 entry or part of it): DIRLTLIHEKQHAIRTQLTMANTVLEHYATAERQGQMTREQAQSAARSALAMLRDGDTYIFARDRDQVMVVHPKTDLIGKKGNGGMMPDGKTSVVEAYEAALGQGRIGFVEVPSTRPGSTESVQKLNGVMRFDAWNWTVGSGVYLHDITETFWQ

In the case of `O=C(O)[C@@H](O)COP(=O)(O)O` [3-phosphoglycerate], the KD entry in assay [1], in [2], in assay [3], in assay [4] and in assay [5] was “Nb” each time. In addition, in assay [6], the “Tm change with respect to the ligand-free protein” value is recorded as “significant increases in Tm”. Besides, the “chemotaxis (capillary assay)” value in the assay on P. atrosepticum SCRI1043 was “significantly greater”. The “growth as sole phosphorus source” value in assay [7] was “permitted growth”. The chemotaxis entry in the assay with Bacillus subtilis is recorded as “weak chemotaxis”.
For orientation: Kd means the equilibrium constant for the complex coming apart. Higher therefore signals weaker binding. With `O=P(O)(O)OCC(O)CO` (centres unmarked) [glycerol 3-phosphate], the KD result in assay [1] is reported as “bound”; in assay [2], “Nb”; in [3], “Nb”; in [4], “Nb”; in assay [5], “Nb”. In assay [1], binding was characterised by a dissociation constant (Kd) of 33 ± 1 µM. In assay [6], the “Tm change with respect to the ligand-free protein” value is recorded as “significant increases in Tm”. In addition, the “chemotaxis (capillary assay)” value is recorded as “significantly greater” in the assay on P. atrosepticum SCRI1043 and “strongest chemotaxis” with P. atrosepticum SCRI1043 (listed as Glycerol 3-phosphate). Moreover, in assay [7], the “growth as sole phosphorus source” value is “supported growth”. The chemotaxis entry in the assay on Bacillus subtilis is listed as “weak chemotaxis”.
